{
  "source": "paper PMC7801313",
  "about": "“Effect of lurbinectedin on the QTc interval in patients with advanced solid tumors: an exposure–response analysis” (Cancer Chemotherapy and Pharmacology, 2020)",
  "key": {"[1]": {"test_system": "patients with advanced solid tumors", "experiment": "concentration-ΔQTcF linear mixed-effects modelling", "format": "in vivo, human", "description": "C–ΔQTcF was assessed using a linear mixed-effects (LME) model, as proposed by Garnett et al.. As the data available came from a single arm study, the LME model was characterized by the intercept ( θ1 ) and the slope ( θ2 ), and their corresponding variabilities.1 ΔQTcFij=θ1·e^η1,i+θ2·e^η2,i·Cij+θ3·Cycle+ϵij, where Cij is the model-predicted lurbinectedin total plasma concentrations (or the lurbinectedin concentrations in the effect compartment if a hysteresis is present), and η1,i and η2,i are the random effects associated with the intercept term θ1 and the slope term θ2 , respectively, and are assumed to be exponential, independent, and normally distributed. Furthermore, ϵij is the random residual variability, assumed to be an additive, independent, and normally distributed random variable. In the absence of placebo data, the unstructured placebo model consisting on the fixed effect parameters accounting for treatment-specific intercept (TRT), mean ΔQTcF at each time point evaluated (TIME), and baseline QTc was not included in the model. Based on the fact that ECG and PK assessments in this study were performed on two occasions (cycle 1 and cycle 2), the effect of cycle θ3 was also assessed in the models. To select the model for the C-ΔQTcF analysis (i.e., direct or indirect), a potential delay of the ΔQTcF effect relative to plasma concentrations (hysteresis) was graphically and statistically assessed, as proposed by Darpo et al.. To enable an adequate comparison of the model fit between the direct effect model and the effect compartment model, the model-based predicted total plasma concentrations at central compartment (“direct” model) and at the effect compartment (“indirect” model) were used. These were based on the individual PK parameters, obtained through a maximum a posteriori estimation based on the individual total plasma concentration available for each subject and a population PK model previously developed.\nThe assumption of linearity of the C–ΔQTcF relationship was assessed by goodness-of-fit plots. Besides, a model with an empirical quadratic term of total plasma concentration was fitted and the significance of the quadratic term was tested. In case of the absence of trends in the goodness-of-fit plots and a non-significant quadratic term, the C–∆QTcF relationship was considered linear; otherwise, the relationship was considered non-linear.\nThe predicted effect of lurbinectedin on ΔQTcF was estimated at the Cmax geometric mean either at the central or at the effect compartment in the first two cycles following the administration of 3.2 mg/m^2 i.v. over 1-h q3wk and was calculated as the estimated intercept ( θ1,Est ) plus the product of the estimated slope ( θ2,Est ) and geometric mean Cmax ( C ):2 EstimatedMeanΔQTcFC=θ1,Est+C×θ2,Est.\nTwo-sided 90% confidence intervals (CIs) of the estimated ΔQTcF were computed from Eqs. 3 and 4:3 EstimatedSE=varθ1,Est+C^2varθ2,Est+2Ccovθ1,Estθ2,Est 4 90%CI=EstimatedMeanΔQTcC±t0.95,DF×EstimatedSE, where varθ1,Est is the variance of the intercept, varθ2,Est is the variance of the slope, and covθ1,Estθ2,Est is the covariance of intercept and slope; t is the critical value determined from the t-distribution; DF is the degrees of freedom; SE is the standard error; and CI is the confidence interval.\nTo exclude a prolongation of QT for lurbinectedin assuming that there is no placebo effect, the upper bound (UB) of the 2-sided 90% CI of the model-predicted mean ΔQTcF had to be lower than 10 ms (threshold set at the ICH E14 Q&A R3 [11]), at the Cmax geometric mean obtained after administration of the clinically relevant dose of 3.2 mg/m^2 i.v. over 1-h q3wk.\nThe Cmax geometric mean either at the central or at the effect compartment, at which UB 90% CI of the model-predicted mean ΔQTcF would be above 10 ms and 20 ms thresholds, was also estimated according to the formulas provided above."}, "[2]": {"test_system": "patients with advanced solid tumors", "experiment": "cardiac adverse events in the QT evaluation study", "format": "in vivo, human", "description": "Cardiac adverse events (AEs) observed in the period of this QT evaluation study were evaluated and graded according to the National Cancer Institute Common Terminology Criteria for Adverse Events (NCI-CTCAE), v.4 and coded using the Medical Dictionary for Regulatory Activities (MedDRA) v.16.0. Laboratory results of particular relevance (i.e., changes in albumin, calcium, potassium, or magnesium) were graded according to the NCI-CTCAE v.4."}, "patients": {"test_system": "patients", "set-up": "method as in PMID 24563480", "settings": "cited from earlier work"}},
  "data": [
    {"smiles": "COc1ccc2[nH]c3c(c2c1)CCN[C@]31CS[C@@H]2c3c(OC(C)=O)c(C)c4c(c3[C@H](COC1=O)N1[C@@H]2[C@H]2c3c(cc(C)c(OC)c3O)C[C@@H]([C@@H]1O)N2C)OCO4", "note": "[lurbinectedin, Lurbinectedin]", "values": [
      {"measurement": "Cmax at the effect compartment associated with 10 ms UB 90% CI of ΔQTcF", "setting": "[1]; delayed effect model", "result": 36.18, "unit": "ng/mL"},
      {"measurement": "Cmax at the effect compartment associated with 20 ms UB 90% CI of ΔQTcF", "setting": "[1]; delayed effect model", "result": 61.94, "unit": "ng/mL"},
      {"measurement": "dose corresponding to 10 ms UB 90% CI of ΔQTcF", "setting": "[1]; delayed effect model", "result": 3.8, "unit": "mg/m^2"},
      {"measurement": "dose corresponding to 20 ms UB 90% CI of ΔQTcF", "setting": "[1]; delayed effect model", "result": 6.5, "unit": "mg/m^2"},
      {"measurement": "fold increase over recommended dose Cmax at 10 ms threshold", "setting": "[1]; delayed effect model", "result": 1.21, "unit": "fold"},
      {"measurement": "fold increase over recommended dose Cmax at 20 ms threshold", "setting": "[1]; delayed effect model", "result": 2.03, "unit": "fold"},
      {"measurement": "Cmax associated with 10 ms UB 90% CI of ΔQTcF", "setting": "[1]; direct effect model", "result": 129.05, "unit": "ng/mL"},
      {"measurement": "Cmax associated with 20 ms UB 90% CI of ΔQTcF", "setting": "[1]; direct effect model", "result": 241.25, "unit": "ng/mL"},
      {"measurement": "dose corresponding to 10 ms UB 90% CI of ΔQTcF", "setting": "[1]; direct effect model", "result": 3.6, "unit": "mg/m^2"},
      {"measurement": "dose corresponding to 20 ms UB 90% CI of ΔQTcF", "setting": "[1]; direct effect model", "result": 6.6, "unit": "mg/m^2"},
      {"measurement": "Cmax (central compartment)", "setting": "[1]; direct effect model, recommended dose", "result": 116.62, "unit": "ng/mL"},
      {"measurement": "Slope of C-ΔQTcF", "setting": "[1]; final delayed effect (effect compartment) model", "result": 0.289, "unit": "L·ms/µg"},
      {"measurement": "Keo, equilibration rate constant", "setting": "[1]; final delayed effect model", "result": 0.298, "unit": "h⁻¹"},
      {"measurement": "Slope of C-ΔQTcF", "setting": "[1]; final direct model", "result": 0.072, "unit": "L·ms/µg"},
      {"measurement": "cardiac safety findings", "setting": "[2]; QT evaluation study period", "result": "No relevant cardiac safety findings"},
      {"measurement": "adverse events suggestive of proarrhythmic potential", "setting": "[2]; in vivo", "result": "No adverse events suggestive of proarrythmic potential"},
      {"measurement": "most common limiting toxicity", "setting": "patients", "result": "myelosuppression, particularly neutropenia"}
    ]}
  ]
}
